Test results reported in ChEMBL document CHEMBL5050844 (2019).

Tests used:
[1] = Induction of anti-CD3 antibodies-stimulated human T cell activation at 1 uM assessed fold increase in IL-2 secretion measured by ELISA assay; assay type: functional, T cell line; further: reference of the scale not given here
[2] = Induction of anti-CD3/CD28 antibodies-stimulated human T cell activation at 1 uM assessed fold increase in IL-2 secretion measured by ELISA assay; assay type: functional, T cell line
[3] = Induction of anti-CD3/CD28 antibodies-stimulated human T cell activation at 0.3 uM assessed fold increase in IL-2 secretion measured by ELISA assay; assay type: functional, T cell line
[4] = Induction of anti-CD3/CD28 antibodies-stimulated human T cell activation at 1 uM assessed fold increase in CD25 expression measured by ELISA assay; assay type: functional, T cell line
[5] = Induction of anti-CD3 antibodies-stimulated human T cell activation at 1 uM assessed fold increase in CD25 expression measured by ELISA assay; assay type: functional, T cell line; further: reference of the scale not given here
[6] = molecular target: E3 ubiquitin-protein ligase CBL-B (Homo sapiens, UniProt Q13191); test: Inhibition of N-terminal Avi-tagged human CBL-B (36 to 427 residues) incubated with 60 nM Src kinase for 1.5 hrs followed by incubation with fluorescently labeled UbcH5B-Ub for 1 hr and measured by TR-FRET assay; assay type: single protein
E3 ubiquitin-protein ligase CBL-B, sequence (Q13191 whole entry, the tested form may be a part): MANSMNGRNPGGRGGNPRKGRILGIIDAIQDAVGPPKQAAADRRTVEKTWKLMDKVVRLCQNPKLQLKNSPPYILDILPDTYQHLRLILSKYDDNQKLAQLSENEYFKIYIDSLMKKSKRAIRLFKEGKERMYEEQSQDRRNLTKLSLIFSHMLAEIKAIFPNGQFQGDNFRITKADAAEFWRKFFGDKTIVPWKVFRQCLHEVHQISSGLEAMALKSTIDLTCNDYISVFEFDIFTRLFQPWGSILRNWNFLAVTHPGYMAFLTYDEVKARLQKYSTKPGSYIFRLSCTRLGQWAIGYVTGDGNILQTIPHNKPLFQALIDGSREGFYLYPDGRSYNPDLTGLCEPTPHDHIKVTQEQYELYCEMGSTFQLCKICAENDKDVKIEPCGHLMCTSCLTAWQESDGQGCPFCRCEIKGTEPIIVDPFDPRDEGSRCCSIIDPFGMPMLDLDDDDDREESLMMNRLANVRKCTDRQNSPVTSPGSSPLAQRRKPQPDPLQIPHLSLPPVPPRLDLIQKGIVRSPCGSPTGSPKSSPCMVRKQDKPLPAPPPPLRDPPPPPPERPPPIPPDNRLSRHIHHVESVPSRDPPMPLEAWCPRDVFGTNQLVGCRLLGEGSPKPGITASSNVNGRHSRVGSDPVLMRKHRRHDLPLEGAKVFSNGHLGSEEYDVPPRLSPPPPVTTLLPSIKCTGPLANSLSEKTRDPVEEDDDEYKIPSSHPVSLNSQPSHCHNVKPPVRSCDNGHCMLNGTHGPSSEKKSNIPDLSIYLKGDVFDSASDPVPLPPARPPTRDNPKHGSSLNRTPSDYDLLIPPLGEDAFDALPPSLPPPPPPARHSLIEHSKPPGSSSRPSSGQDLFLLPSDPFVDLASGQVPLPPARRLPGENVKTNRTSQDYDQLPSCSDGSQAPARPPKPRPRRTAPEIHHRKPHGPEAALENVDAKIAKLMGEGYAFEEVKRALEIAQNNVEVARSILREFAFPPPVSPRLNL

[7] = Induction of anti-CD3/CD28 antibodies-stimulated human T cell activation at 0.3 uM assessed fold increase in CD25 expression measured by ELISA assay; assay type: functional, T cell line

| SMILES | fold change (FC) [1] | fold change (FC) [2] | fold change (FC) [3] | fold change (FC) [4] | fold change (FC) [5] | IC50 [6] [nM] | fold change (FC) [7] | FC [1] | FC [2] | FC [3] | FC [4] | FC [5] | FC [7] |
| --- | --- | --- | --- | --- | --- | --- | --- | --- | --- | --- | --- | --- | --- |
| CN1C[C@H]2CC[C@@H](C1)N2c1cc(C(=O)Nc2cccc(C3(Cc4nncn4C)COC3)c2)nc(C2CC2)n1 | >=0.201 | >=7.5 | 5 | 1.51 | >=1.001 | < 100 | 1.31 | – | – | – | – | – | – |
| Cc1cc(C(=O)Nc2cccc(C3(C(F)(F)c4nncn4C)CC3)c2)nc(C2CC2)n1 | 0.101 | 2.51 | 1.01 | 1.01 | 0.601 | < 100 | 1.01 | – | – | – | – | – | – |
| C[C@H](Cc1nncn1C)c1cc(C2CC2)nc(N2Cc3c(cccc3C(F)(F)F)C2=O)c1 | 0.101 | 2.51 | 1.01 | 1.01 | 0.801 | < 100 | 1.01 | – | – | – | – | – | – |
| Cn1cnnc1CC1(c2cccc(N3Cc4c(cc(CN5CCC6(CC6)C5)cc4C(F)(F)F)C3=O)c2)CCC1 | >=0.201 | >=7.5 | >=7.5 | 1.31 | >=1.001 | < 100 | 1.31 | – | – | – | – | – | – |
| Cn1cnnc1CC1(c2cccc(N3Cc4c(cc(CN5CCCc6c5cnn6C)cc4C(F)(F)F)C3=O)c2)COC1 | >=0.201 | >=7.5 | 5 | 1.01 | >=1.001 | < 100 | 1.01 | – | – | – | – | – | – |
| Cn1cnnc1CC1(c2cccc(N3Cc4c(cc(C5=CCCOC5)cc4C(F)(F)F)C3=O)c2)COC1 | – | – | – | – | – | < 100 | – | 0.101 | 2.51 | 2.51 | 1.01 | 0.801 | 1.01 |
| Cc1conc1CC1(c2cccc(NC(=O)c3cc(CN4CCC5(CC5)C4)cc(C4CC4)n3)c2)COC1 | >=0.201 | >=7.5 | >=7.5 | 1.31 | >=1.001 | < 100 | 1.31 | – | – | – | – | – | – |
| CN1CCN(Cc2cc3c(c(C(F)(F)F)c2)CN(c2cccc(C4(Cc5nncn5C)COC4)c2)C3=O)CC1 | >=0.201 | >=7.5 | 2.51 | 1.31 | >=1.001 | < 100 | 1.31 | – | – | – | – | – | – |
| Cn1cnnc1CC1(c2cccc(N3Cc4c(cc(CN5Cc6cccnc6C5)cc4C(F)(F)F)C3=O)c2)COC1 | >=0.201 | >=7.5 | 2.51 | 1.31 | >=1.001 | < 100 | 1.31 | – | – | – | – | – | – |
| COC1CCCN(Cc2cc3c(c(C(F)(F)F)c2)CN(c2cccc(C4(Cc5nncn5C)COC4)c2)C3=O)C1 (centres undefined) | >=0.201 | >=7.5 | >=7.5 | 1.51 | >=1.001 | < 100 | 1.31 | – | – | – | – | – | – |
| CCN1CCN(Cc2cc3c(c(C(F)(F)F)c2)CN(c2cccc(C4(Cc5nncn5C)COC4)c2)C3=O)CC1 | >=0.201 | >=7.5 | 5 | 1.31 | >=1.001 | < 100 | 1.31 | – | – | – | – | – | – |
| Cn1cnnc1CC1(c2cccc(NC(=O)c3cc(C4CC4)nc4ccnn34)c2)COC1 | <=0.05 | 2.51 | 1.01 | 1.01 | 0.601 | < 100 | 1.01 | – | – | – | – | – | – |
| Cn1cnnc1CC1(c2cccc(N3Cc4c(cc(CN5CC[C@H](CO)C(F)(F)C5)cc4C(F)(F)F)C3=O)c2)COC1 | 0.151 | >=7.5 | >=7.5 | 1.31 | >=1.001 | < 100 | 1.31 | – | – | – | – | – | – |
| Cn1cnnc1CC1(c2cccc(N3Cc4c(cc(N5CC(C(F)F)C5)nc4C4CC4)C3=O)c2)COC1 | 0.101 | 5 | 2.51 | 1.01 | 0.801 | < 100 | 1.01 | – | – | – | – | – | – |
| Cn1cnnc1CC1(c2cccc(N3Cc4c(ccnc4C(F)(F)F)C3=O)c2)COC1 | <=0.05 | 1.01 | 1.01 | 1.01 | 0.601 | < 100 | 1.01 | – | – | – | – | – | – |
| CC[C@@H](c1cc2c(c(C(F)(F)F)c1)CN(c1cccc(C3(Cc4nncn4C)COC3)c1)C2=O)N1CC[C@H](F)C1 | >=0.201 | >=7.5 | >=7.5 | 1.51 | >=1.001 | < 100 | 1.51 | – | – | – | – | – | – |
| CCOc1cc(NC(=O)c2cc(C)nc(C3CC3)n2)cc(C2(Cc3nncn3C)COC2)c1 | 0.051 | 5 | 2.51 | 1.01 | 0.801 | < 100 | 1.01 | – | – | – | – | – | – |
